Measured values: PubChem BioAssay (NCI)
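Each compound was tested at five concentrations against cells in 96-well plates for 48 hours. GI50 = concentration required for 50% inhibition of growth. Definition used: TGI = concentration required for complete inhibition of growth.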

Key:
Assay in all cases: growth of human tumour cells (NCI), 48 h
786-0 renal = tested on: 786-0 renal
A498 renal = tested on: A498 renal
A549 NSCLC = tested on: A549 NSCLC
ACHN renal = tested on: ACHN renal
BT-549 breast = tested on: BT-549 breast
CAKI-1 renal = tested on: CAKI-1 renal
CCRF-CEM leukemia = tested on: CCRF-CEM leukemia
COLO 205 colon = tested on: COLO 205 colon
DU-145 prostate = tested on: DU-145 prostate
EKVX NSCLC = tested on: EKVX NSCLC
HCC-2998 colon = tested on: HCC-2998 colon
HCT-116 colon = tested on: HCT-116 colon
HCT-15 colon = tested on: HCT-15 colon
HL-60(TB) leukemia = tested on: HL-60(TB) leukemia
HOP-62 NSCLC = tested on: HOP-62 NSCLC
HS 578T breast = tested on: HS 578T breast
HT29 colon = tested on: HT29 colon
IGROV1 ovarian = tested on: IGROV1 ovarian
K-562 leukemia = tested on: K-562 leukemia
KM12 colon = tested on: KM12 colon
LOX IMVI melanoma = tested on: LOX IMVI melanoma
M14 melanoma = tested on: M14 melanoma
MALME-3M melanoma = tested on: MALME-3M melanoma
MCF7 breast = tested on: MCF7 breast
MDA-MB-231 breast = tested on: MDA-MB-231 breast
MDA-MB-435 = tested on: MDA-MB-435
MOLT-4 leukemia = tested on: MOLT-4 leukemia
NCI-H226 lung = tested on: NCI-H226 lung
NCI-H23 lung = tested on: NCI-H23 lung
NCI-H460 lung = tested on: NCI-H460 lung
NCI-H522 lung = tested on: NCI-H522 lung
NCI/ADR-RES ovarian = tested on: NCI/ADR-RES ovarian
OVCAR-3 ovarian = tested on: OVCAR-3 ovarian
OVCAR-4 ovarian = tested on: OVCAR-4 ovarian
OVCAR-5 ovarian = tested on: OVCAR-5 ovarian
OVCAR-8 ovarian = tested on: OVCAR-8 ovarian
PC-3 prostate = tested on: PC-3 prostate
RPMI-8226 leukemia = tested on: RPMI-8226 leukemia
RXF 393 renal = tested on: RXF 393 renal
SF-268 CNS = tested on: SF-268 CNS
SF-295 CNS = tested on: SF-295 CNS
SF-539 CNS = tested on: SF-539 CNS
SK-MEL-2 melanoma = tested on: SK-MEL-2 melanoma
SK-MEL-28 melanoma = tested on: SK-MEL-28 melanoma
SK-MEL-5 melanoma = tested on: SK-MEL-5 melanoma
SK-OV-3 ovarian = tested on: SK-OV-3 ovarian
SN12C renal = tested on: SN12C renal
SNB-19 CNS = tested on: SNB-19 CNS
SNB-75 CNS = tested on: SNB-75 CNS
SR leukemia = tested on: SR leukemia
SW-620 colon = tested on: SW-620 colon
T-47D breast = tested on: T-47D breast
TK-10 renal = tested on: TK-10 renal
U251 CNS = tested on: U251 CNS
UACC-257 melanoma = tested on: UACC-257 melanoma
UACC-62 melanoma = tested on: UACC-62 melanoma
UO-31 renal = tested on: UO-31 renal

For `COC(=O)c1cc2cc(-c3ccc(OC)cc3)cnc2[nH]1`, the GI50 (786-0 renal) was 1.64 µM, the TGI (786-0 renal) was 14.6 µM and the GI50 (A498 renal) was 1.63 µM. For the same compound, the TGI (A498 renal) was 14.3 µM, the GI50 (A549 NSCLC) was 1.13 µM and the TGI (A549 NSCLC) was 40.3 µM. For the same compound, the GI50 (ACHN renal) was 7.77 µM, the TGI (ACHN renal) was 57.1 µM and the GI50 (BT-549 breast) was 1.08 µM. The TGI (BT-549 breast) was > 32.2 µM, the GI50 (CAKI-1 renal) was 2.28 µM and the TGI (CAKI-1 renal) was > 38.9 µM. For the same compound, the GI50 (CCRF-CEM leukemia) was 2.61 µM, the TGI (CCRF-CEM leukemia) was > 100 µM and the GI50 (COLO 205 colon) was 0.774 µM. The GI50 (DU-145 prostate) was 2.6 µM, the TGI (DU-145 prostate) was 16 µM and the GI50 (EKVX NSCLC) was 5.87 µM. For the same compound, the TGI (EKVX NSCLC) was > 100 µM, the GI50 (HCC-2998 colon) was 2.34 µM and the TGI (HCC-2998 colon) was 18.9 µM. For the same compound, the GI50 (HCT-116 colon) was 0.39 µM, the TGI (HCT-116 colon) was 11.7 µM and the GI50 (HCT-15 colon) was 0.6 µM. For the same compound, the TGI (HCT-15 colon) was > 100 µM, the GI50 (HL-60(TB) leukemia) was 0.767 µM and the TGI (HL-60(TB) leukemia) was > 28.1 µM. For the same compound, the GI50 (HOP-62 NSCLC) was 2.95 µM, the TGI (HOP-62 NSCLC) was 21.2 µM and the TGI (HS 578T breast) was > 30.3 µM. The GI50 (HT29 colon) was 0.399 µM, the TGI (HT29 colon) was 23.4 µM and the GI50 (IGROV1 ovarian) was 0.439 µM. For the same compound, the TGI (IGROV1 ovarian) was 2.77 µM, the GI50 (K-562 leukemia) was 0.427 µM and the TGI (K-562 leukemia) was > 100 µM. It also gave a GI50 (KM12 colon) of 0.418 µM, a TGI (KM12 colon) of 12.9 µM and a GI50 (LOX IMVI melanoma) of 2.19 µM. The TGI (LOX IMVI melanoma) was > 100 µM, the GI50 (M14 melanoma) was 0.511 µM and the TGI (M14 melanoma) was 7.52 µM. For the same compound, the GI50 (MALME-3M melanoma) was 2.87 µM, the TGI (MALME-3M melanoma) was 37.9 µM and the GI50 (MCF7 breast) was 0.452 µM. For the same compound, the TGI (MCF7 breast) was > 100 µM, the GI50 (MDA-MB-231 breast) was 4.11 µM and the TGI (MDA-MB-231 breast) was 31.2 µM. It also gave a GI50 (MDA-MB-435) of 0.227 µM, a TGI (MDA-MB-435) of 0.666 µM and a GI50 (MOLT-4 leukemia) of 1.06 µM. The TGI (MOLT-4 leukemia) was > 100 µM, the GI50 (NCI-H226 lung) was 9.15 µM and the TGI (NCI-H226 lung) was 57.3 µM. It also gave a GI50 (NCI-H23 lung) of 3.33 µM, a TGI (NCI-H23 lung) of 24.1 µM and a GI50 (NCI-H460 lung) of 0.565 µM. For the same compound, the TGI (NCI-H460 lung) was 11.6 µM, the GI50 (NCI-H522 lung) was 0.767 µM and the TGI (NCI-H522 lung) was 5.48 µM. It also gave a GI50 (NCI/ADR-RES ovarian) of 0.36 µM, a TGI (NCI/ADR-RES ovarian) of 3.41 µM and a GI50 (OVCAR-3 ovarian) of 0.359 µM. The TGI (OVCAR-3 ovarian) was 1.19 µM, the GI50 (OVCAR-4 ovarian) was 3.47 µM and the TGI (OVCAR-4 ovarian) was > 100 µM. The GI50 (OVCAR-5 ovarian) was 11.3 µM, the TGI (OVCAR-5 ovarian) was 73.7 µM and the GI50 (OVCAR-8 ovarian) was 1.52 µM. For the same compound, the TGI (OVCAR-8 ovarian) was 16.4 µM, the GI50 (PC-3 prostate) was 1.26 µM and the TGI (PC-3 prostate) was 15 µM. The GI50 (RPMI-8226 leukemia) was 1.29 µM, the TGI (RPMI-8226 leukemia) was > 28 µM and the GI50 (RXF 393 renal) was 1.85 µM. It also gave a TGI (RXF 393 renal) of 5.96 µM, a GI50 (SF-268 CNS) of 2.05 µM and a TGI (SF-268 CNS) of 27.7 µM. For the same compound, the GI50 (SF-295 CNS) was 1.32 µM, the TGI (SF-295 CNS) was 11.4 µM and the GI50 (SF-539 CNS) was 1.11 µM. The TGI (SF-539 CNS) was 3.79 µM, the GI50 (SK-MEL-2 melanoma) was 2.76 µM and the TGI (SK-MEL-2 melanoma) was > 67.3 µM. For the same compound, the GI50 (SK-MEL-28 melanoma) was 6.27 µM, the TGI (SK-MEL-28 melanoma) was > 100 µM and the GI50 (SK-MEL-5 melanoma) was 0.922 µM. It also gave a TGI (SK-MEL-5 melanoma) of 15.8 µM, a GI50 (SK-OV-3 ovarian) of 2.35 µM and a TGI (SK-OV-3 ovarian) of 12.9 µM. The GI50 (SN12C renal) was 5.73 µM, the TGI (SN12C renal) was > 51.6 µM and the GI50 (SNB-19 CNS) was 2.27 µM. The TGI (SNB-19 CNS) was > 64.7 µM, the GI50 (SNB-75 CNS) was 1.68 µM and the TGI (SNB-75 CNS) was 21.3 µM. It also gave a GI50 (SR leukemia) of 0.286 µM, a TGI (SR leukemia) of 21.1 µM and a GI50 (SW-620 colon) of 0.389 µM. For the same compound, the TGI (SW-620 colon) was > 100 µM, the GI50 (T-47D breast) was 0.726 µM and the TGI (T-47D breast) was > 100 µM. The GI50 (TK-10 renal) was 4.26 µM, the TGI (TK-10 renal) was 21.8 µM and the GI50 (U251 CNS) was 0.857 µM. For the same compound, the TGI (U251 CNS) was 16.6 µM, the GI50 (UACC-257 melanoma) was 7.35 µM and the TGI (UACC-257 melanoma) was > 100 µM. The GI50 (UACC-62 melanoma) was 1.88 µM, the TGI (UACC-62 melanoma) was > 70.1 µM and the GI50 (UO-31 renal) was 4.06 µM. The TGI (UO-31 renal) was 24.1 µM.
